Test results published in patent US20050101783A1, “N-(heterocycle-methyl)alkylamine derivative, process for producing the same, and bactericide” (priority 2000, published 2005).

Key:
Assay type in all cases: in vivo
[1] = test system: Erysiphe graminis f. sp tritici; assay: Preventive effect test of wheat powdery mildew (wettable powder sprayed on potted wheat, preventive value); conditions: wettable powder suspended at 250 mg/l, sprayed on potted wheat at 100 l/10 a; morbidity investigated 9th to 14th day after inoculation
Experimental: (Preventive Effect Test of Erysiphe graminis f. sp […])
The wettable powders obtained by using each compound were diluted with water and were suspended at a predetermined concentration (250 mg/l) and the solution was sprayed over the first to second leaf stage-wheat (variety. Agriculture and Forestry No. 64) cultivated by using a square plastic pot (size: 6.4 cm×6.4 cm) at a rate of 100 1/10 a (are).
After the sprayed leaves were air-dried, the suspension of the spore of Erysiphe graminis f. sp tritici germ sampled from the contracted leaves were sprayed and inoculated over the sprayed leaf after air-dried, the leaves were kept at 20 to 24° C. under a high-humidity condition for 24 hours, then, the leaves were subjected to still standing in a greenhouse (temperature: 20 to 24° C. and relative humidity: 20 to 70 RH). The morbidity rate was investigated based on the following investigation standard on 9th to 14th day after the inoculation and the preventive value was calculated according to the following formula 1.

[2] = test system: cucumber gray mold; assay: Preventive effect test of cucumber gray mold (wettable powder sprayed on potted cucumber, preventive value); conditions: wettable powder suspended at 250 mg/l, sprayed on potted cucumber at 100 l/10 a; morbidity investigated 4th to 6th day after inoculation
Experimental: (Preventive Effect Test of Cucumber Gray Mold)
The wettable powders obtained by using each compound were diluted with water and were suspended at a predetermined concentration (250 mg/l) and the solution was sprayed over the first to second leaf stage-cucumber (variety: “Sagamihanpakufushinari”) cultivated by using a square plastic pot (size: 6.4 cm×6.4 cm) at a rate of 100 1/10 a.
After the sprayed leaves were air-dried, a paper disk where the solution of the spore of the gray mold suspended with water was impregnated was put on the aforementioned sprayed leaves, and the leaves were contracted in a glass greenhouse (temperature: 20 to 24° C. and relative humidity: 20 to 70 RH). The morbidity rate was investigated based on the following investigation standard on 4th to 6th day after the inoculation and the preventive value was calculated according to the following formula 2.

[3] = test system: cucumber powdery mildew; assay: Preventive effect of cucumber powdery mildew (wettable powder sprayed on potted cucumber, preventive value); conditions: wettable powder suspended at 100 mg/l, sprayed on potted cucumber at 100 l/10 a; morbidity investigated 9th to 14th day after inoculation
Experimental: (Preventive Effect of Cucumber Powdery Mildew)
The wettable powders obtained by using each compound were diluted with water and were suspended at a predetermined concentration (100 mg/l) and the solution was sprayed over the first to second leaf stage-cucumber (variety: “Sagamihanpakufushinari”) cultivated by using a square plastic pot (size: 6.4 cm×6.4 cm) at a rate of 100 1/10 a.
After the sprayed leaves were air-dried, the spore was inoculated over the aforementioned air-dried leaves from the contracted leaves with a brush, and the contraction was performed in a glass greenhouse (temperature: 20 to 24° C. and relative humidity: 20 to 70 RH). The morbidity rate was investigated based on the same investigation standard as that in the preventive effect test of the cucumber gray mold on 9th to 14th day after the inoculation, and the preventive value was calculated according to the aforementioned formula 2.

Row | Compound | Preventive Value (%) [1] [%] | Preventive Value (%) [2] [%] | Preventive Value (%) [3] [%]
1 | CC(Cc1ccc(Cl)cc1Cl)CN(C)Cc1ccc(Cl)nc1 (stereo not drawn) [Compound (a), 6-chloro-N-methyl-N-[2-methyl-3-(2,4-dichlorophenyl)propyl]-3-pyridylmethylamine, reference compound] | 60 | 80 | 70
2 | CC(Cc1cccc(Cl)c1)CN(C)Cc1ccc(Cl)nc1 (stereo not drawn) [Compound (b), 6-chloro-N-methyl-N-[2-methyl-3-(3-chlorophenyl)propyl]-3-pyridylmethylamine, reference compound] | 70 | 30 | 80
3 | CN(Cc1cccnc1)CC(C)(C)Cc1ccc(C(C)(C)C)cc1 [Compound I-16] | – | 100 | –
4 | CN(Cc1ccc(F)nc1)CC(C)(C)Cc1ccc(C(C)(C)C)cc1 [Compound I-19] | 100 | 100 | 100
5 | CN(Cc1cccnc1Cl)CC(C)(C)Cc1ccc(C(C)(C)C)cc1 [Compound I-20] | – | 100 | –
6 | Cc1ncc(CN(C)CC(C)(C)Cc2ccc(C(C)(C)C)cc2)cn1 [Compound I-21] | – | 100 | –
7 | CN(Cc1ccc(Cl)nc1)CC(C)(C)Cc1ccc(C(C)(C)C)cc1 [Compound I-25] | – | 100 | –
8 | CC(C)Oc1cccc(CC(C)(C)CN(C)Cc2ccc(Cl)nc2)c1 [Compound I-27] | 100 | – | –
9 | CN(Cc1ccc(Cl)nc1)CC(C)(C)Cc1ccc(Cl)cc1 [Compound I-28] | 100 | 100 | –
10 | CN(Cc1ccc(Cl)nc1)CC(C)(C)Cc1cccc(Cl)c1 [Compound I-29] | – | 100 | –
11 | CN(Cc1ccc(Cl)nc1)CC(C)(C)Cc1ccc(Cl)cc1Cl [Compound I-31] | – | 100 | –
12 | CN(Cc1ccc(Cl)nc1)CC(C)(C)Cc1cc(Cl)ccc1Cl [Compound I-32] | – | 100 | –
13 | CN(Cc1ccc(Cl)nc1)CC(C)(C)Cc1ccc(Cl)c(Cl)c1 [Compound I-33] | – | 100 | –
14 | CN(Cc1ccc(Cl)nc1)CC(C)(C)Cc1cc(Cl)cc(Cl)c1 [Compound I-34] | – | 100 | –
15 | CN(Cc1ccc(Cl)nc1)CC(C)(C)Cc1ccc(Oc2ccccc2)cc1 [Compound I-35] | – | 100 | –
16 | CN(Cc1ccc(Cl)nc1)CC(C)(C)Cc1cccc(Oc2ccccc2)c1 [Compound I-36] | – | 100 | –
17 | CN(Cc1ccc(Cl)nc1)CC(C)(C)Cc1ccc(F)c(Oc2ccccc2)c1 [Compound I-38] | – | 100 | –
18 | Cc1ccc(Oc2cccc(CC(C)(C)CN(C)Cc3ccc(Cl)nc3)c2)cc1 [Compound I-39] | – | 100 | –
19 | CN(Cc1ccc(Cl)nc1)CC(C)(C)Cc1cccc(Oc2cccc(C(F)(F)F)c2)c1 [Compound I-40] | – | 100 | –
20 | CN(Cc1ccc(Cl)nc1)CC(C)(C)Cc1cccc(OC(F)(F)F)c1 [Compound I-46] | – | 100 | –
21 | CN(Cc1ccc(Cl)nc1)CC(C)(C)Cc1cccc(OC(F)(F)C(F)F)c1 [Compound I-48] | – | 100 | –
22 | CN(Cc1ccc(Cl)nc1)CC(C)(C)Cc1ccc2c(c1)OC(F)(F)O2 [Compound I-49] | 100 | – | 100
23 | CC(CCc1ccc(C(C)(C)C)cc1)CN(C)Cc1ccc(Cl)nc1 (stereo not drawn) [Compound I-50] | – | 100 | –

Row | Compound | Preventive Value (%) [1] [%] | Preventive Value (%) [2] [%] | Preventive Value (%) [3] [%]
24 | CN(Cc1ccc(Cl)nc1)CC(C)(C)CCc1ccc(C(C)(C)C)cc1 [Compound I-51] | – | 100 | –
25 | CC(CCCc1ccc(C(C)(C)C)cc1)CN(C)Cc1ccc(Cl)nc1 (stereo not drawn) [Compound I-52] | – | 100 | –
26 | CC(CCc1cccc(Oc2ccccc2)c1)CN(C)Cc1ccc(Cl)nc1 (stereo not drawn) [Compound I-54] | – | 100 | –
27 | CN(Cc1ccc(Cl)nc1)CC(C)(C)CCc1cccc(Oc2ccccc2)c1 [Compound I-55] | – | – | 100
28 | CC(CCc1ccc(Cl)cc1Cl)CN(C)Cc1ccc(Cl)nc1 (stereo not drawn) [Compound I-56] | 100 | – | 100
29 | CC(CC1CCC(C(C)(C)C)CC1)CN(C)Cc1ccc(Cl)nc1 (stereo not drawn) [Compound I-62, N-[3-(4-t-butylcyclohexyl)-2-methylpropyl]-6-chloro-N-methyl-3-pyridylmethylamine] | 100 | 100 | –
30 | CN(Cc1ccc(Cl)nc1)CC(C)(C)CC1CCC(C(C)(C)C)CC1 (stereo not drawn) [Compound I-63] | – | 100 | –
31 | CC(CCC1CCC(C(C)(C)C)CC1)CN(C)Cc1ccc(Cl)nc1 (stereo not drawn) [Compound I-64] | – | 100 | –
32 | CC(CCCC1CCC(C(C)(C)C)CC1)CN(C)Cc1ccc(Cl)nc1 (stereo not drawn) [Compound I-66] | – | 100 | –
33 | CN(Cc1ccc(Cl)nc1)CC(C)(C)Cc1ccc(OC(C)(C)C)cc1 [Compound I-73] | 100 | 100 | 100
34 | CC(C)Oc1ccc(CC(C)(C)CN(C)Cc2ccc(Cl)nc2)cc1 [Compound I-74] | 100 | 100 | 100
35 | CN(Cc1ccc(Cl)nc1)CC(C)(C)Cc1ccc(OCC(F)(F)F)cc1 [Compound I-82] | 100 | 100 | 100
36 | CN(Cc1ccc(Cl)nc1)CC(C)(C)Cc1ccc(OC(F)(F)C(F)F)cc1 [Compound I-83] | 100 | 100 | 100
37 | CN(Cc1ccc(Cl)nc1)CC(C)(C)Cc1ccc(OCC(F)(F)C(F)F)cc1 [Compound I-84] | 100 | 100 | 100
38 | CN(Cc1ccc(Cl)nc1)CC(C)(C)Cc1ccc(OCC(F)(F)C(F)(F)F)cc1 [Compound I-85] | 100 | 100 | 100
39 | COCc1ccc(CC(C)(C)CN(C)Cc2ccc(Cl)nc2)cc1 [Compound I-88] | 100 | 100 | 100
40 | CCOCc1ccc(CC(C)(C)CN(C)Cc2ccc(Cl)nc2)cc1 [Compound I-89] | 100 | 100 | 100
41 | COC(C)c1ccc(CC(C)(C)CN(C)Cc2ccc(Cl)nc2)cc1 (stereo not drawn) [Compound I-95] | 100 | 100 | 100
42 | CCOC(C)c1ccc(CC(C)(C)CN(C)Cc2ccc(Cl)nc2)cc1 (stereo not drawn) [Compound I-96] | 100 | 100 | 100
43 | CON=C(C)c1ccc(CC(C)(C)CN(C)Cc2ccc(Cl)nc2)cc1 [Compound I-116] | 100 | 100 | 100
44 | CCON=C(C)c1ccc(CC(C)(C)CN(C)Cc2ccc(Cl)nc2)cc1 [Compound I-117] | 100 | 100 | 100
45 | CCC(=NOC)c1ccc(CC(C)(C)CN(C)Cc2ccc(Cl)nc2)cc1 [Compound I-121] | 100 | 100 | 100
